Laboratory results from ChEMBL document CHEMBL3507680, “University of Dundee, Gates Library screen for HepG2 cell viability”.

Assay: Human HepG2 cell viability assay in 384 well format
Assay type: toxicity, cell-based
Parameters: dose 125 nL, time 70.5 hour; concentration not given beside the values
Conditions: HepG2 cells, read-out: Inhibition

CSCc1nc(C(C)(C)NC(=O)OC(C)(C)C)no1
cytotoxicity at 70.5 h: -7.03%

CCN1CC2(CCOCC2)c2cc(NS(=O)(=O)CC)ccc21
cytotoxicity at 70.5 h: -2.27%

Cc1cc(C(=O)N2CCCC(C(=O)c3nccn3C)C2)c(=O)[nH]c1C (stereo not drawn)
cytotoxicity at 70.5 h: 7.95%

CCn1cnc2c(cnn2-c2cccc(C)c2C)c1=O
cytotoxicity at 70.5 h: 45.8%

O=C(CCc1ccccc1)N1CCN(C(=O)c2ccc[nH]2)CC1
cytotoxicity at 70.5 h: -12.3%

CCn1cc(CN2CCCN(C(=O)Cc3ccc(C)nc3)CC2)cn1
cytotoxicity at 70.5 h: -9.56%

O=C(CSc1ncccn1)N1C[C@H]2CC[C@@H]1CN(Cc1ccncc1)C2
cytotoxicity at 70.5 h: -0.441%

O=C(CCn1ccc2ccc(Cl)cc21)NCc1ccc(C(=O)O)cc1
cytotoxicity at 70.5 h: -0.8%

N#CCCN(CCN1CCOCC1)Cc1ccc(F)c(Br)c1
cytotoxicity at 70.5 h: -3.12%

CN(Cc1ccncn1)C(=O)CCC(=O)NC1CCCC1
cytotoxicity at 70.5 h: -9.64%

CCN(CC)S(=O)(=O)CCNc1nnc(C(C)C)s1
cytotoxicity at 70.5 h: 6.99%

O=C(NCCN1CCOC1=O)c1cc(-c2ccccc2)on1
cytotoxicity at 70.5 h: 33.3%

O=C(N[C@@H]1CN(Cc2ccoc2)C[C@@H]2CCCO[C@@H]21)C1CCC1
cytotoxicity at 70.5 h: -11.2%

CCOC(=O)C1CCN(C(=O)CN2CCCC2c2cc(C)no2)CC1 (stereo not drawn)
cytotoxicity at 70.5 h: -17.8%

Cc1cc(C)n(CC2(CNC(=O)C(c3ccccc3C)N(C)C)CC2)n1 (stereo not drawn)
cytotoxicity at 70.5 h: -10.8%

CSc1cccc(NC(=O)CCC(=O)Nc2nccs2)c1
cytotoxicity at 70.5 h: 14.4%

Cc1c(F)cc(C(=O)O)cc1S(=O)(=O)Nc1ccc2c(c1)OCCO2
cytotoxicity at 70.5 h: -2.52%

Cc1noc(CCCC(=O)N2CCN(C)CC2c2ccccc2)n1 (stereo not drawn)
cytotoxicity at 70.5 h: 29.2%

CC(C)(C)c1ccc(-n2ncc3c2CCCC3N)cc1 (stereo not drawn)
cytotoxicity at 70.5 h: -3.43%

CC(=O)c1ccc(NC(=O)NC(C)c2ccc3c(c2)CC(=O)N3)cc1 (stereo not drawn)
cytotoxicity at 70.5 h: 2.82%

CC(CN1CCC2(CC1)c1nc[nH]c1CCN2S(C)(=O)=O)C(F)(F)F (stereo not drawn)
cytotoxicity at 70.5 h: -1.86%

CC(C)Oc1ccc(C(O)CNCc2ccccc2C(F)(F)F)cc1 (stereo not drawn)
cytotoxicity at 70.5 h: -6.08%

Cc1ccccc1[C@@H]1CN(Cc2c(C)noc2C)C[C@H]1C(=O)O
cytotoxicity at 70.5 h: 21.7%

CCC(CC)NC(=O)CN1CCSCC1
cytotoxicity at 70.5 h: 3.72%

CC(=O)NCc1ccc(C(=O)Nc2ccc3c(c2)C(=O)NC3)cc1
cytotoxicity at 70.5 h: -2.55%

Cc1ccc2ncnc(N3CCOCC3c3c(C)nn(C)c3C)c2c1 (stereo not drawn)
cytotoxicity at 70.5 h: -11.7%

COc1cccc(-c2n[nH]cc2CNC2CCC(O)CC2)c1 (stereo not drawn)
cytotoxicity at 70.5 h: -15.9%

O=C(c1ccsc1)N1CCc2c(nc(-c3ccncc3)[nH]c2=O)C1
cytotoxicity at 70.5 h: -6.38%

O=C([C@H]1CCCO1)N1CCN(CCn2cccn2)c2ncccc2C1
cytotoxicity at 70.5 h: -5.29%

Cc1cccc(N(CCC(N)=O)CC(=O)Nc2cc(Cl)ccc2Cl)c1
cytotoxicity at 70.5 h: -5.69%

O=C(NCCCN1CCCC1=O)c1ccc(-n2ccc3ccccc32)s1
cytotoxicity at 70.5 h: 1.6%

CCC(O)CN1CCN(C(=O)c2sccc2C2CC2)CC1 (stereo not drawn)
cytotoxicity at 70.5 h: -2.13%

CCNC(=O)[C@@H]1C[C@H](N)CN1C(=O)c1cccc(CCC(C)(C)O)c1
cytotoxicity at 70.5 h: -5.42%

Nc1nc(CNc2nccc(CCC(F)(F)F)n2)cs1
cytotoxicity at 70.5 h: -7.96%

Cc1nc(-c2ccsc2)ccc1C(=O)O
cytotoxicity at 70.5 h: -4.19%

CNc1ncc(CN(C)C(=O)CCc2cc3n(n2)CCCNC3)cn1
cytotoxicity at 70.5 h: -9.14%

COCCN1CCC2(CC1)CC(N1CCOCC1)c1cc(C)ccc12 (stereo not drawn)
cytotoxicity at 70.5 h: 4.82%

O=C(CN1CCOCC1CC(=O)c1ccco1)NCc1ccccn1 (stereo not drawn)
cytotoxicity at 70.5 h: 2.07%

CCOc1ncccc1C(=O)NC1CCCN(c2ncccn2)C1 (stereo not drawn)
cytotoxicity at 70.5 h: 1.87%

COc1cccc(NC(=O)N2CC[C@@H]3CN(C)S(=O)(=O)[C@@H]3CC2)c1
cytotoxicity at 70.5 h: 20.9%

CCN(CCNCc1ccc(C#N)cc1)C1CC1
cytotoxicity at 70.5 h: -6.58%

CN(Cc1cccc(C#N)c1)S(=O)(=O)N1CCOCC1
cytotoxicity at 70.5 h: -9.82%

Cc1ccccc1S(=O)(=O)NC(=O)C1(c2cccc(Cl)c2)CC1
cytotoxicity at 70.5 h: -5.62%

CCN(C(=O)c1cnc(-c2ccc3c(c2)OCO3)s1)C1CC1
cytotoxicity at 70.5 h: 12.4%

Cc1nn(Cc2ccc(C(=O)NCCCN3CCCC3=O)o2)c(C)c1Cl
cytotoxicity at 70.5 h: -10.6%

Cn1ccnc1CN1CC[C@@H](NS(C)(=O)=O)[C@@H]1Cc1cccnc1
cytotoxicity at 70.5 h: -2.76%

Cc1cc(N[C@H]2CCCC[C@@H]2O)n2nccc2n1
cytotoxicity at 70.5 h: 5.62%

COc1ccnc(CN(C)C(=O)CSc2nnc(N)s2)c1
cytotoxicity at 70.5 h: -5.2%

c1ccc(Cc2nnc(CN3CCn4c(nnc4C4CC4)C3)o2)cc1
cytotoxicity at 70.5 h: -13.3%

Cc1nc(NC(=O)NC(CS(C)(=O)=O)c2ccccc2)sc1C (stereo not drawn)
cytotoxicity at 70.5 h: -11.5%

Cc1nc(CCNC(=O)NC(C)c2ccc3c(c2)OCCO3)cs1 (stereo not drawn)
cytotoxicity at 70.5 h: -3.72%

Cn1ccc(NC(=O)NC2CCCN(c3ccccc3Cl)C2=O)n1 (stereo not drawn)
cytotoxicity at 70.5 h: -0.238%

C[C@H]1CN2C[C@H](O)CC2CN1Cc1ccncc1 (stereo partly drawn)
cytotoxicity at 70.5 h: -1.34%

CC(c1ccccc1)N(C)C(=O)CN1CCN(c2cnccn2)CC1 (stereo not drawn)
cytotoxicity at 70.5 h: -16.2%

O=C(Nc1ccc(-c2ccccc2)cc1)N1C[C@@H]2CNC[C@]2(C(=O)O)C1
cytotoxicity at 70.5 h: -9.81%

Clc1cccc(C(CNCc2ccccn2)N2CCOCC2)c1 (stereo not drawn)
cytotoxicity at 70.5 h: 48.6%

CC(C)(C)OC(=O)NC1CCCN(Cc2cccc(O)c2)C1 (stereo not drawn)
cytotoxicity at 70.5 h: -4.69%

Cc1cnn(CCC(=O)N(CC2CN(C)CCO2)c2nccs2)c1 (stereo not drawn)
cytotoxicity at 70.5 h: -12.8%
